Counter-ions that a name gives are not always drawn.
Test system: HCT-116
Test: Cytotoxicity against human HCT-116 cells assessed as cell growth inhibition measured after 48 hrs by MTT assay
Assay type: functional, cell-based
Details: HCT-116, 48 h

Row | Structure (SMILES) | IC50 [µM]
1 | C=C1[C@H]2O[C@@H](OC(=O)/C=C(/C)COC(C)=O)[C@H]3[C@@H]1CC(=O)[C@@]3(CCl)O2 | 5.2
2 | C=C1[C@H]2O[C@@H](OC(=O)/C=C(/C)COC(C)=O)[C@H]3[C@@H]1CC(=O)[C@@]3(CO)O2 | 4.9
3 | COc1cccc2c1C(=O)c1c(O)c3c(c(O)c1C2=O)C[C@@](O)(C(=O)CO)C[C@@H]3O[C@H]1C[C@H](N)[C@H](O)[C@H](C)O1 [DOXORUBICIN HYDROCHLORIDE] | 0.16

Reference: ChEMBL document CHEMBL4825705, “Iridoid Constituents of Viburnum brachybotryum” (J Nat Prod, 2021)
